Results: a melting point compilation (Tetko et al.; mined from patent text by program, amines drawn as free bases though some values may be those of a salt)

Compared with COc1ccc(C(=O)c2ccc(Cl)cc2F)c(Cl)c1Cl, CNc1cc(-c2ccc(Cl)cc2)nc(C(=O)OC)c1N is higher in melting point: 115 to 116 °C for the first, 178 to 200 °C for the second.

First: CC(Oc1ccc([N+](=O)[O-])cc1)C(=O)O (stereo not drawn)
Second: COC(=O)CCC(=O)c1ccc(O)cc1
The melting point of the first is higher: 139 to 141 °C for the first, 115 to 116 °C for the second.

First: CCc1cc2c(Cl)cc(F)c(-n3c(=O)cc(C(F)(F)F)[nH]c3=O)c2o1
Second: Cc1nnc(-c2ccc3ncn(-c4cc(C(F)(F)F)ccc4Cl)c3c2)o1
The melting point of the first is lower: 154 to 155 °C for the first, 211 to 212 °C for the second.

Compared with CCc1nc2c(c(=O)n(C)c(=O)n2-c2ccc(Cl)cc2Cl)n1Cc1ccc(OC)cc1, COc1ccc(N2CCN(c3ccc(OC)nc3-c3ccc(N(C)C)cc3)CCC2=O)cc1 is lower in melting point: 209 to 210 °C for the first, 192 to 193 °C for the second.

Compared with CCOC(=O)c1ccc(NCCCc2ccc(OCc3ccccc3)cc2)cc1, Cc1oc(-c2ccco2)nc1COc1ccc(CON=C(CCCCC(=O)O)c2ccccc2)cc1 is higher in melting point: 98 to 107 °C for the first, 112 to 113 °C for the second.

First: O=[N+]([O-])c1cc(F)ccc1NC1CCN(Cc2ccccc2)CC1
Second: O[C@H](COc1cccc2[nH]ccc12)CN1CCC(c2c[nH]c3ccc(F)cc23)CC1
The melting point of the first is lower: 86 to 87 °C for the first, 94 to 97 °C for the second.

First: Cn1c(=O)[nH]c2nc3ccc(OCCCCC(=O)O)cc3cc21
Second: CCOC(=O)c1cc2cc(OCCCOC)cc(NS(=O)(=O)c3ccccn3)c2[nH]1
The melting point of the first is higher: 311 to 313 °C for the first, 126 to 127 °C for the second.

First: Cc1c(-c2ccc(O)cc2)oc2ccccc2c1=O
Second: O=c1c(-c2ccccc2)coc2cc(O)c(Cl)c(Cl)c12
The melting point of the first is lower: 241 to 242 °C for the first, over 290 °C for the second.

First: CC(=O)CC(=S)N1N=C(c2ccc([N+](=O)[O-])cc2)c2cc3c(cc2CC1C)OCO3 (stereo not drawn)
Second: COc1cc(C2=NNC(=O)Cc3cc4c(cc32)OCO4)ccc1[N+](=O)[O-]
The melting point of the first is lower: 178 to 185 °C for the first, 267 to 269 °C for the second.

First: O=C(Nc1ccc2nc(S)[nH]c2c1)C(=O)N1CCC(Cc2ccc(F)cc2)CC1
Second: O=C(c1ccc(F)cc1)C1CCN(C(=O)CCc2ccc(OCc3ccccc3)cc2OCc2ccccc2)CC1
The melting point of the first is higher: 286 to 288 °C for the first, 140 to 141 °C for the second.

Compared with Cc1nc2c(O)c(CCC(=O)c3ccccc3)c(C(=O)N(C)C)cc2n1C, CN(C)C(=O)C(N)=NNc1ccc(Cl)cc1C(=O)c1ccccc1Cl is lower in melting point: 223 to 224 °C for the first, 150 to 151 °C for the second.

First: N#Cc1ccc2sc(CO)cc2c1
Second: Cc1coc2cc(O)ccc12
The melting point of the first is lower: 78 to 79 °C for the first, 92 °C for the second.

Compared with C=C(C)c1ccc(C(=O)C2=C(O)C(=O)N(c3ccc(C)nn3)C2c2ccc(OC(F)(F)F)cc2)cc1 (stereo not drawn), CN1CCC(c2c[nH]c3ccc(C(=O)c4ccc(C(F)(F)F)cc4)cc23)CC1 is lower in melting point: 253 °C for the first, 160 to 162 °C for the second.

First: CN1CCN(c2cccc3c2C[C@H](NC(=O)c2ccc(N4CCCCC4)cc2)CO3)CC1
Second: CS(=O)(=O)Nc1cc([C@@H](O)CNC2CCN(c3ccc(/C=C/C(=O)O)cc3)CC2)ccc1O
The melting point of the first is lower: 178 to 180 °C for the first, 220 °C for the second.

First: COc1ccc2c(c1)OC[C@@H]1CCCN1C2=O
Second: CON(C)C(=O)c1cc(Br)cnc1N1CCCC1
The melting point of the first is higher: 104 to 106 °C for the first, 94 to 96 °C for the second.

First: Cc1cc(C)c(C)c(P(=O)(c2ccc(F)cc2)c2ccc(F)cc2)c1C
Second: Cc1cccc(-c2n[nH]cc2-c2ccc(F)c(-c3ccc4c(c3)CCS4(=O)=O)c2)n1
The melting point of the first is higher: 171 to 173 °C for the first, 107 to 109 °C for the second.

COCCOc1ccc2c(C(C[N+](=O)[O-])c3cccc(NC(=O)OCc4ccccc4)c3C)c[nH]c2c1 (stereo not drawn) and O=C(Nc1cccc(Cl)c1)ONC1=Nc2ccc([N+](=O)[O-])cc2C(c2ccccc2)=NC1 cannot be ordered by melting point: 125 °C for the first, 123 to 125 °C for the second.

Compared with COc1ccc(-c2nc(N)ncc2-c2ccc(=O)n(C)n2)cc1F, Cc1nccn2c(-c3ccnc(NCC(C)(C)CO)n3)c(-c3ccc(F)cc3F)nc12 is lower in melting point: 245 °C for the first, 174 °C for the second.

First: O=C(O)Cc1cc(O)c2c(c1)CCc1ccccc1C2=O
Second: Cc1nc(Sc2cc(C(=O)O)c3ccccc3n2)sc1CC(=O)O
The melting point of the first is lower: 149 to 151 °C for the first, 206 to 208 °C for the second.

First: O=C(O)c1cccc(Oc2ccc(C(F)(F)F)cn2)c1
Second: O=C(Nc1c(C(F)(F)F)n[nH]c1-c1ccccc1)c1ccccc1
The melting point of the first is lower: 146 °C for the first, 229 to 230 °C for the second.

Compared with CC(=O)OCC1OC(n2c(=O)sc3c(Cl)nc(N)nc32)C(OC(C)=O)C1OC(C)=O (stereo not drawn), CC(=O)c1ccc2ccc3c(c2c1)C(CCl)CN3C(=O)OC(C)(C)C (stereo not drawn) is lower in melting point: 101 to 103 °C for the first, 98 to 100 °C for the second.

Compared with CC(C)(C(=O)O)c1cn2nc(CCCN3CCN(C(c4ccccc4)c4ccccc4)CC3)ccc2n1, NC(=O)c1cncn1C(c1ccccc1)c1ccccc1 is lower in melting point: 176 to 178 °C for the first, 153 °C for the second.

First: CCOC(=O)Cc1ccc(-c2nc(COc3cc(CO)on3)c(C)o2)cc1
Second: Cc1nc(-c2ccc(Cl)cc2)oc1COC(C)(C)C(N)=O
The melting point of the first is lower: 116 to 117 °C for the first, 177 to 178 °C for the second.

Compared with COC(=O)c1sc(Cl)nc1C(F)(F)F, COC(=O)c1cscc1S(=O)(=O)Cl is higher in melting point: 32 to 34 °C for the first, 71 °C for the second.

First: COc1ccc(CNc2nnc(N3CCC(CO)CC3)c3ccc(Cl)cc23)cc1Cl
Second: CCc1ccc(C=C2CCCN(c3nc(C)c(C(=O)NCc4ccccc4)s3)C2=O)s1
The melting point of the first is lower: 128 to 131 °C for the first, 171 to 172 °C for the second.

First: CCCCCCCC/C=C\CCCCCCCCOc1ccc(C(=O)O)o1
Second: CCCCCCCCCCCCCCc1cc(C(=O)O)c[nH]1
The melting point of the first is higher: 93 to 96 °C for the first, 83 to 85 °C for the second.

First: CCOc1ccc(Nc2nc3nc[nH]c3c(=O)[nH]2)cn1
Second: CCOc1nc2c(Cl)cccc2s1
The melting point of the first is higher: over 350 °C for the first, 43 to 45 °C for the second.

Compared with Cc1ccccc1C(O)c1nnn[nH]1 (racemic), Cc1cccc(NC(=O)CS)c1 is lower in melting point: 124 to 126 °C for the first, 58 to 60 °C for the second.

First: Cc1cc(CCCCCOc2ccc(C3=NCCO3)cc2C=CBr)on1
Second: CCCCCCc1cc(CO)c(-c2ccccc2)c(-c2ccccc2)c1CO
The melting point of the first is lower: 94 to 96 °C for the first, 136 to 137 °C for the second.

First: O=C(NCc1ccccc1)c1cc2ccnc(Cl)c2[nH]1
Second: c1ccc(-c2cc3ccncc3[nH]2)cc1
The melting point of the first is lower: 217 to 220 °C for the first, 222 to 224 °C for the second.

Compared with Nc1cc(-c2c(-c3ccc(F)cc3)ncn2CCCN2CCOCC2)ccn1, O=C1Nc2ccccc2N(CCCCCCN2CCCCC2)c2ccccc21 is lower in melting point: 186 to 187 °C for the first, 124 to 125 °C for the second.

Compared with O=c1c2c([nH]n1-c1ccc(Br)cc1)-c1cc(Cl)ccc1SC2, Cc1nc(-c2ccc(C(=O)Nc3ccc(Cl)cc3)cc2)sc1C(=O)O is higher in melting point: 257 to 260 °C for the first, 276 to 278 °C for the second.

Compared with N#CCCN1CCC(COC(=O)c2cc(Cl)c(N)c3c2OCCO3)CC1, CC(C)(C)OC(=O)N1CCn2c(c(C(N)=O)c(C#N)c2C2CC2)C1 is higher in melting point: 101 to 103 °C for the first, 221 to 222 °C for the second.

Compared with Cc1cc(-c2cnn3c(C(F)(F)F)cc(-c4ccc(C(F)(F)F)c(C)c4)nc23)cc(C)n1, O=C(Nc1cccnc1)c1cccc(-c2cccc3oc(Cc4cccc(C(F)(F)F)c4)cc23)c1 is lower in melting point: 253 °C for the first, 127 to 128 °C for the second.

First: NC(=O)c1ccc2c(c1)C(=O)c1cc(F)ccc1C2=O
Second: COC(=O)c1cccc2c(=O)c3cc(I)ccc3[nH]c12
The melting point of the first is higher: 322 to 323 °C for the first, 224 to 226 °C for the second.

Compared with CC(C)(C)OC(=O)c1nc(C2CC2)[nH]c(=O)c1OCc1ccccc1, CSC1C(=O)Nc2c(C(=O)c3ccccc3)cccc21 (stereo not drawn) is lower in melting point: 164 °C for the first, 130 °C for the second.

Compared with CC(NC(=S)N1CCc2c([nH]c3ccccc23)C1c1ccc2c(c1)OCO2)c1ccccc1 (stereo not drawn), COC(=O)CN(c1ccccc1C)S(=O)(=O)c1ccccc1C(=O)c1cc(OC)c2c(c1)OCO2 is higher in melting point: 117 to 121 °C for the first, 159 to 170 °C for the second.

First: CC(C)(C)OC(=O)N(CCc1ccc(C(F)(F)F)cc1)C1CCN(C[C@@]2(C)Cn3cc([N+](=O)[O-])nc3O2)CC1
Second: CN1CCC(c2c[nH]c3ccc(NC(=O)c4ccoc4)nc23)CC1
The melting point of the first is higher: 207 to 209 °C for the first, 105 to 108 °C for the second.

First: CCOP(=O)(CC(Nc1cccnc1)c1cc(C)c(O)c(OC)c1)OCC (stereo not drawn)
Second: Brc1cnc2c(c1)ncn2-c1cccc(-c2cccnc2)c1
The melting point of the first is lower: 156 to 158 °C for the first, 212 to 213 °C for the second.

First: CC(C)(C)c1cc(C(C)(C)C)c2c(c1)C1(O)C(=O)c3ccccc3C1(O)O2 (stereo not drawn)
Second: O=C1NC(=O)C(c2ccc3ccccc3c2)O1 (stereo not drawn)
The melting point of the first is higher: 200 to 203 °C for the first, 187 to 188 °C for the second.

CCS(=O)(=O)NCCCCn1c(C)nc2c(N)nc3ccccc3c21 and CN(C)CCOCc1ccc2[nH]nc(S(=O)(=O)c3cccc4ccccc34)c2c1 cannot be ordered by melting point: 211 to 212 °C for the first, over 200 °C for the second.

First: O=Cc1cc2cccc3ccc4cccc1c4c32
Second: CS(=O)(=O)c1ccc(-c2sc(-c3ccccc3Cl)nc2-c2ccccc2Cl)cc1
The melting point of the first is higher: 172 to 174 °C for the first, 143 to 147 °C for the second.

First: CC1(C)C(C#CC(=O)OCC2CC2)C1C(=O)OC(C#N)c1cccc(Oc2ccccc2)c1 (stereo not drawn)
Second: Cc1ccc(COC2C(Sc3ccccc3)OC(C)C(O)C2O)cc1 (stereo not drawn)
The melting point of the first is lower: 72 °C for the first, 146 to 147 °C for the second.

First: CS(=O)(=O)c1ccc(-n2cc(-c3ccc(Cl)cc3)nc2-c2ccc(Cl)cc2)cc1
Second: O=C(Nc1cc2nc(-c3ccc(C(=O)C4CCCCC4)cc3)[nH]c2cn1)c1ccccn1
The melting point of the first is lower: 169 to 171 °C for the first, 258 °C for the second.

First: Cc1ccc(S(=O)(=O)NCCOCCO)cc1
Second: Cc1c(C2=NCCS2)[nH]c2c(NS(=O)(=O)c3cccs3)cccc12
The melting point of the first is lower: 35 to 38 °C for the first, 163 to 164 °C for the second.

First: CC(Nc1ccc2c(n1)CC1CCCCC1C2=O)c1ccccc1 (stereo not drawn)
Second: CC(C)c1ccc(N(Cc2cnn(CC(=O)O)c2)C(=O)C2CCCc3c(OCc4ccccc4)cccc32)cc1 (stereo not drawn)
The melting point of the first is lower: 156 to 158 °C for the first, 180 to 182 °C for the second.

First: CCn1c(CO)nc(C(C)C)c1Sc1cc(F)cc(F)c1
Second: CCCCc1ccc2nc(Cl)cn2n1
The melting point of the first is higher: 102 to 104 °C for the first, 61 to 63 °C for the second.

First: Cc1ccc2c(c1)c1c(n2CCBr)C(=O)CCC1
Second: C=CCSc1cc(C(=O)O)cc([N+](=O)[O-])c1-c1ccccc1
The melting point of the first is lower: 102 to 103 °C for the first, 152 to 154 °C for the second.

First: C=CCOCC1CC(N)c2cc(S(N)(=O)=O)sc2S1(=O)=O (stereo not drawn)
Second: CCCn1nc(C2CC2)c(C(=O)OCC)c1Cc1ccc(-c2ccccc2-c2nnn(C(c3ccccc3)(c3ccccc3)c3ccccc3)n2)cc1
The melting point of the first is higher: 167 to 168 °C for the first, 154 to 159 °C for the second.
